Measured values published in patent US11739098B2 (BRISTOL-MYERS SQUIBB COMPANY, priority 2017, dated 2023).

Assays:
Format in all cases: cell-based
human TLR8 = molecular target: T1, human TLR8 (Homo sapiens, UniProt Q9NR97); assay: TLR8 inhibition reporter assay (HEK-Blue cells, SEAP reporter, R848 stimulation); settings: HEK-Blue cells overexpressing human TLR8, SEAP reporter, R848 15.9 μM
T1 construct: host or cells: HEK-Blue cells (HEK293-derived reporter line)
T1 sequence (Q9NR97 27-1041): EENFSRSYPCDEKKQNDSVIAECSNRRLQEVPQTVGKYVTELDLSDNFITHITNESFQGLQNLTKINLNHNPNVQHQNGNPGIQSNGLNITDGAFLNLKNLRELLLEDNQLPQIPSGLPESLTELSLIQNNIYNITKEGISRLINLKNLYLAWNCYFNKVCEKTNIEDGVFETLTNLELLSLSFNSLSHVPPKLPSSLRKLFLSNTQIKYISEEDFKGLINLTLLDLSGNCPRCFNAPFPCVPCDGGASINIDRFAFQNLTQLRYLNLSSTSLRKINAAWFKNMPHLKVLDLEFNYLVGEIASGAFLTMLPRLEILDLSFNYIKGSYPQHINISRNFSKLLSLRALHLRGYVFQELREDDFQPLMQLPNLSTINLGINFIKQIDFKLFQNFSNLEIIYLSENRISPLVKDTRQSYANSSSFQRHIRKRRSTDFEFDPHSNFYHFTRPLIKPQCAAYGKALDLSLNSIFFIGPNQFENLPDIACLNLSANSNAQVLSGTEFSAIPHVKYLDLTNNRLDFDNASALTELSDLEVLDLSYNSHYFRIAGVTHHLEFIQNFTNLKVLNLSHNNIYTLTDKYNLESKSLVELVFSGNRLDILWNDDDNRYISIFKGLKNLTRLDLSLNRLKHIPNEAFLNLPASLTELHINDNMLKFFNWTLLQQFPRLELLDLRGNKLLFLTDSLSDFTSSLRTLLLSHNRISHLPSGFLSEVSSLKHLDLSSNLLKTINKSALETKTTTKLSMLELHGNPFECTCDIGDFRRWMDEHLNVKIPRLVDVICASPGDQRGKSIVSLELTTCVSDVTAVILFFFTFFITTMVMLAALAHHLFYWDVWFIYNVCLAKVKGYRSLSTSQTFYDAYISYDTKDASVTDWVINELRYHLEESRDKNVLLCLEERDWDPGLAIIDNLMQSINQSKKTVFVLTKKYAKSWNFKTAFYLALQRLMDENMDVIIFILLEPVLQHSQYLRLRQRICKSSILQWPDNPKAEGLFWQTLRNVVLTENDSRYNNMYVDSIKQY
In short: (§1)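 Read-out is SEAP activity in HEK-Blue detection medium after 22 h at 37 °C, converted to percent inhibition against agonist-plus-DMSO and reference-inhibitor controls. Cells saw compound (0.05 nM–50 μM, 30 min, room temperature) before gardiquimod 7.5 μM, R848 15.9 μM or ODN2006 5 nM for TLR7, TLR8 and TLR9, respectively.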

human TLR7 = molecular target: T2, human TLR7 (Homo sapiens, UniProt Q9NYK1); assay: TLR7 inhibition reporter assay (HEK-Blue cells, SEAP reporter, gardiquimod stimulation); settings: HEK-Blue cells overexpressing human TLR7, SEAP reporter, gardiquimod 7.5 μM
T2 construct: host or cells: HEK-Blue cells (HEK293-derived reporter line)
T2 sequence (Q9NYK1 27-1049): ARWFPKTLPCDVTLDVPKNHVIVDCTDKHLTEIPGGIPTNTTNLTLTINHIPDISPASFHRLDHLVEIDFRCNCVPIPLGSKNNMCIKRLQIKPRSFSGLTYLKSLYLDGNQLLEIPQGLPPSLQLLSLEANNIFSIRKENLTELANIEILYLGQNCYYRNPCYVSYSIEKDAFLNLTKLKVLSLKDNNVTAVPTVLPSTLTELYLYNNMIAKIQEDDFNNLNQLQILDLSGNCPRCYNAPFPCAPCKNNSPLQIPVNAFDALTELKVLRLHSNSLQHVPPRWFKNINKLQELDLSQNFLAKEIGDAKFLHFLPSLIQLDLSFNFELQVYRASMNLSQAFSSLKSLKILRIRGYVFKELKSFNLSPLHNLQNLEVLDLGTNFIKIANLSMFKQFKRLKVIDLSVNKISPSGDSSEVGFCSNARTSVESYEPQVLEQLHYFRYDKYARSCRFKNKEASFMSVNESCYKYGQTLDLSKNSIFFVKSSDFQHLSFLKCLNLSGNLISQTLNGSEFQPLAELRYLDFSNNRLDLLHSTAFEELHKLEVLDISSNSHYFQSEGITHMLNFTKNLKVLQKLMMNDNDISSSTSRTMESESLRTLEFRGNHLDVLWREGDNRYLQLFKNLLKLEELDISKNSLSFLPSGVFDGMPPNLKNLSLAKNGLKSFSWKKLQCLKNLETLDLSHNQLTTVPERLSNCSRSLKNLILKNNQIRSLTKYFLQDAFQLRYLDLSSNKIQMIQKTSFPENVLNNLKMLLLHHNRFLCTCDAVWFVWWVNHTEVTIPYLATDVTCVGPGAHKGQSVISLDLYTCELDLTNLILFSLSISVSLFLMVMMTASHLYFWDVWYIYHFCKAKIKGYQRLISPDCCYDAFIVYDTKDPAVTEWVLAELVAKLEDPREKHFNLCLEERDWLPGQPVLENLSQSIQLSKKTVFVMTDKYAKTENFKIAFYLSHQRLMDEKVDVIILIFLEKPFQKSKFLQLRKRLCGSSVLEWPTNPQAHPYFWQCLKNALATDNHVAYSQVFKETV
In short: as §1

human TLR9 = molecular target: T3, human TLR9 (Homo sapiens, UniProt Q9NR96); assay: TLR9 inhibition reporter assay (HEK-Blue cells, SEAP reporter, ODN2006 stimulation); settings: HEK-Blue cells overexpressing human TLR9, SEAP reporter, ODN2006 5 nM
T3 construct: host or cells: HEK-Blue cells (HEK293-derived reporter line)
T3 sequence (Q9NR96 26-1032): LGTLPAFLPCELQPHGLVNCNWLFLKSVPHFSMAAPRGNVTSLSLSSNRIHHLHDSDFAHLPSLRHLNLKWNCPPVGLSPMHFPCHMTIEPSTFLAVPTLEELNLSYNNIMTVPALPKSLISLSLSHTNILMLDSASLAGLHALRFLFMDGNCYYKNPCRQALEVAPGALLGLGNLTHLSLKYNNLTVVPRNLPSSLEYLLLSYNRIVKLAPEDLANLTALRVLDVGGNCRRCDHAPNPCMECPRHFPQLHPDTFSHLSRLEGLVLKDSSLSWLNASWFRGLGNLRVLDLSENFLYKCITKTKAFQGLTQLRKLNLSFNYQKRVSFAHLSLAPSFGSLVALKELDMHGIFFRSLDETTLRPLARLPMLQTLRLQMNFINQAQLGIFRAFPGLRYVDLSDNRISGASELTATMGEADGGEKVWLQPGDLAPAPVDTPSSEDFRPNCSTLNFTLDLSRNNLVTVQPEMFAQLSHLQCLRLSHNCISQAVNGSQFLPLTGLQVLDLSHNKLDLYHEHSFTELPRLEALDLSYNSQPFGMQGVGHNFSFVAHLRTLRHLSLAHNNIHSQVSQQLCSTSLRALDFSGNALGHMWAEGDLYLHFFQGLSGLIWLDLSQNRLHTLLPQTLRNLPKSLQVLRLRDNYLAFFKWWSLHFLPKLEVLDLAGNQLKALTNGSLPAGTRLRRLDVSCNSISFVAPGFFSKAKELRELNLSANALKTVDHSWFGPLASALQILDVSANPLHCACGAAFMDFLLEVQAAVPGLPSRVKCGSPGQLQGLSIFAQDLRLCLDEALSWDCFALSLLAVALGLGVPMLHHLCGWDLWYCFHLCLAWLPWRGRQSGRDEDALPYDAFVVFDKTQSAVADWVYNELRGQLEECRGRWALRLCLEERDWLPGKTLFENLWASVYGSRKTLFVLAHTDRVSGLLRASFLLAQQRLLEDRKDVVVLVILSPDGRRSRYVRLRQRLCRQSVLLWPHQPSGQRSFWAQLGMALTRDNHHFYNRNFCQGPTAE
In short: as §1

SMILES: CC(C)c1c(-c2cnc3ccnn3c2)[nH]c2ccc(C3CCN(C(=O)CN(C)C)CC3)cc12 [Example 502, 2-(dimethylamino)-1-(4-(3-isopropyl-2-(pyrazolo[1,5-a]pyrimidin-6-yl)-1H-indol-5-yl)piperidin-1-yl)ethan-1-one]
- IC50 (human TLR8): > 3130 nM
- IC50 (human TLR7): 1000 to 50000 nM
- IC50 (human TLR9): 100 to 1000 nM

SMILES: CC(C)c1c(-c2cc(F)c3nccn3c2)[nH]c2ccc(C3CCN(CC(=O)N(C)C)CC3)cc12 [Example 408, 2-(4-(2-(8-fluoroimidazo[1,2-5a]pyridin-6-yl)-3-isopropyl-1H-indol-5-yl)piperidin-1-yl)-N,N-dimethylacetamide]
- IC50 (human TLR8): 100 to 1000 nM
- IC50 (human TLR7): < 100 nM
- IC50 (human TLR9): 1000 to 50000 nM

SMILES: Cc1c(-c2ccnc3[nH]cc(N)c23)[nH]c2ccc(C3CCNCC3)cc12 [Example 211, 4-(3-methyl-5-(piperidin-4-yl)-1H-indol-2-yl)-1H-pyrrolo[2,3-b]pyridin-3-amine]
- IC50 (human TLR8): 1000 to 50000 nM
- IC50 (human TLR7): 1000 to 50000 nM
- IC50 (human TLR9): 1000 to 50000 nM

SMILES: CC(C)c1c(-c2ccnc3[nH]ncc23)[nH]c2ccc(C3CCN(C(=O)CN4CCC(CO)CC4)CC3)cc12 [Example 576, 2-(4-(hydroxymethyl)piperidin-1-yl)-1-(4-(3-isopropyl-2-(1H-pyrazolo[3,4-b]pyridin-4-yl)-1H-indol-5-yl)piperidin-1-yl)ethan-1-one]
- IC50 (human TLR8): < 100 nM
- IC50 (human TLR7): < 100 nM
- IC50 (human TLR9): 1000 to 50000 nM

SMILES: CC(C)c1c(-c2cc(Cl)c3ncccc3c2)[nH]c2ccc(C3CCN(CC(=O)N(C)C)CC3)cc12 [Example 380, 2-(4-(2-(8-chloroquinolin-6-yl)-3-isopropyl-1H-indol-5-yl)piperidin-1-yl)-N,N-dimethylacetamide]
- IC50 (human TLR8): < 100 nM
- IC50 (human TLR7): < 100 nM
- IC50 (human TLR9): 1000 to 50000 nM

SMILES: CCc1c(-c2ccnc3[nH]cc(Cl)c23)[nH]c2ccc(C3CCNCC3)cc12 [Example 39, 3-chloro-4-(3-ethyl-5-(piperidin-4-yl)-1H-indol-2-yl)-1H-pyrrolo[2,3-b]pyridine]
- IC50 (human TLR8): 100 to 1000 nM
- IC50 (human TLR7): 100 to 1000 nM
- IC50 (human TLR9): 1000 to 50000 nM

SMILES: CCc1c(-c2ccn3ccnc3c2)[nH]c2ccc(C3CCNCC3)cc12 [Example 202, 7-(3-ethyl-5-(piperidin-4-yl)-1H-indol-2-yl)imidazo[1,2-a]pyridine]
- IC50 (human TLR8): 1000 to 50000 nM
- IC50 (human TLR7): 1000 to 50000 nM
- IC50 (human TLR9): 100 to 1000 nM

SMILES: Cc1cn2c(C)cc(-c3[nH]c4ccc(C5CCN(CC(=O)N(C)C)CC5)cc4c3C(C)C)cc2n1 [Example 353, 2-(4-(2-(2,5-dimethylimidazo[1,2-a]pyridin-7-yl)-3-isopropyl-1H-indol-5-yl)piperidin-1-yl)-N,N-dimethylacetamide]
- IC50 (human TLR8): 1000 to 50000 nM
- IC50 (human TLR7): 100 to 1000 nM
- IC50 (human TLR9): 100 to 1000 nM

SMILES: Cc1nc2c(-c3[nH]c4ccc(C5CCN(C(=O)CN(C)C)CC5)cc4c3C(C)C)ccc(C)n2n1 [Example 515, 1-(4-(2-(2,5-dimethyl-[1,2,4]triazolo[1,5-a]pyridin-8-yl)-3-isopropyl-1H-indol-5-yl)piperidin-1-yl)-2-(dimethylamino)ethan-1-one]
- IC50 (human TLR8): 100 to 1000 nM
- IC50 (human TLR7): 1000 to 50000 nM
- IC50 (human TLR9): 1000 to 50000 nM

SMILES: CNCC(=O)N1CCC(c2ccc3[nH]c(-c4cc(C)n5cncc5c4)c(C(C)C)c3c2)CC1 [Example 530, 1-(4-(3-isopropyl-2-(5-methylimidazo[1,5-a]pyridin-7-yl)-1H-indol-5-yl)piperidin-1-yl)-2-(methylamino)ethan-1-one]
- IC50 (human TLR8): < 100 nM
- IC50 (human TLR7): < 100 nM
- IC50 (human TLR9): 100 to 1000 nM

SMILES: CC(C)c1c(-c2ccnc3[nH]ncc23)[nH]c2ccc(C3CCN(C(=O)c4cc[nH]n4)CC3)cc12 [Example 615, (4-(3-isopropyl-2-(1H-pyrazolo[3,4-b]pyridin-4-yl)-1H-indol-5-yl)piperidin-1-yl)(1H-pyrazol-3-yl)methanone]
- IC50 (human TLR8): 100 to 1000 nM
- IC50 (human TLR7): 100 to 1000 nM
- IC50 (human TLR9): 1000 to 50000 nM

SMILES: Cc1cc(-c2[nH]c3ccc(C4CCN(C(=O)CN(C)C)CC4)cc3c2C(C)C)nc2scnc12 [Example 543, 2-(dimethylamino)-1-(4-(3-isopropyl-2-(7-methylthiazolo[5,4-b]pyridin-5-yl)-1H-indol-5-yl)piperidin-1-yl)ethan-1-one]
- IC50 (human TLR8): < 100 nM
- IC50 (human TLR7): < 100 nM
- IC50 (human TLR9): 1000 to 50000 nM

SMILES: CC(C)c1c(-c2cnc3ncccn23)[nH]c2ccc(C3CCNCC3)cc12 [Example 64, 3-(3-isopropyl-5-(piperidin-4-yl)-1H-indol-2-yl)imidazo[1,2-a]pyrimidine]
- IC50 (human TLR8): < 100 nM
- IC50 (human TLR7): < 100 nM
- IC50 (human TLR9): 100 to 1000 nM

SMILES: CCc1c(-c2cnc3[nH]ncc3c2)[nH]c2ccc(C3CCN(C4CCN(C(C)C)CC4)CC3)cc12 [Example 819, 5-(3-ethyl-5-(1′-isopropyl-[1,4′-bipiperidin]-4-yl)-1H-indol-2-yl)-1H-pyrazolo[3,4-b]pyridine]
- IC50 (human TLR8): < 100 nM
- IC50 (human TLR7): 100 to 1000 nM
- IC50 (human TLR9): 100 to 1000 nM
